Measured values: the NIST ThermoML archive (doi:10.1021/je400055v)
± gives the expanded uncertainty stated by the source.

Assay: xn = mol fraction of the nth substance listed
Details: Liquid, Vibrating tube method

## CCCCCCCCCCC [undecane] + CCCCCCC
323.12 K, 7000 kPa, x2 = 0.7482
  mass density: 685.4 ± 0.3 kg/m3
323.12 K, 8000 kPa, x2 = 0.7482
  mass density: 686.4 ± 0.3 kg/m3
323.12 K, 8001 kPa, x2 = 0.05
  mass density: 722.8 ± 0.3 kg/m3
323.12 K, 9000 kPa, x2 = 0.05
  mass density: 723.6 ± 0.3 kg/m3
323.12 K, 9000 kPa, x2 = 0.7482
  mass density: 687.3 ± 0.3 kg/m3
323.12 K, 10000 kPa, x2 = 0.05
  mass density: 724.5 ± 0.3 kg/m3
323.12 K, 10000 kPa, x2 = 0.7482
  mass density: 688.3 ± 0.3 kg/m3
323.12 K, 11000 kPa, x2 = 0.05
  mass density: 725.3 ± 0.3 kg/m3
323.12 K, 11000 kPa, x2 = 0.7482
  mass density: 689.2 ± 0.3 kg/m3
323.12 K, 12000 kPa, x2 = 0.05
  mass density: 726.1 ± 0.3 kg/m3
323.12 K, 12000 kPa, x2 = 0.7482
  mass density: 690.1 ± 0.3 kg/m3
323.12 K, 13000 kPa, x2 = 0.05
  mass density: 726.8 ± 0.3 kg/m3
323.12 K, 13000 kPa, x2 = 0.7482
  mass density: 691.1 ± 0.4 kg/m3
323.12 K, 14000 kPa, x2 = 0.05
  mass density: 727.6 ± 0.3 kg/m3
323.12 K, 14000 kPa, x2 = 0.7482
  mass density: 691.9 ± 0.4 kg/m3
323.12 K, 15000 kPa, x2 = 0.05
  mass density: 728.4 ± 0.3 kg/m3
323.12 K, 15000 kPa, x2 = 0.7482
  mass density: 692.8 ± 0.4 kg/m3
323.12 K, 16000 kPa, x2 = 0.05
  mass density: 729.1 ± 0.4 kg/m3
323.12 K, 16000 kPa, x2 = 0.7482
  mass density: 693.7 ± 0.4 kg/m3
323.12 K, 17000 kPa, x2 = 0.05
  mass density: 729.9 ± 0.4 kg/m3
323.12 K, 17000 kPa, x2 = 0.7482
  mass density: 694.5 ± 0.4 kg/m3
323.12 K, 18000 kPa, x2 = 0.05
  mass density: 730.6 ± 0.4 kg/m3
323.12 K, 18000 kPa, x2 = 0.7482
  mass density: 695.4 ± 0.4 kg/m3
323.12 K, 19000 kPa, x2 = 0.05
  mass density: 731.3 ± 0.4 kg/m3
323.12 K, 19000 kPa, x2 = 0.7482
  mass density: 696.2 ± 0.4 kg/m3
323.12 K, 20000 kPa, x2 = 0.05
  mass density: 732 ± 0.4 kg/m3
323.12 K, 20000 kPa, x2 = 0.7482
  mass density: 697 ± 0.4 kg/m3
323.12 K, 21000 kPa, x2 = 0.05
  mass density: 732.7 ± 0.4 kg/m3
323.12 K, 21000 kPa, x2 = 0.7482
  mass density: 697.8 ± 0.4 kg/m3
323.12 K, 22000 kPa, x2 = 0.7482
  mass density: 698.6 ± 0.4 kg/m3
323.12 K, 22001 kPa, x2 = 0.05
  mass density: 733.4 ± 0.4 kg/m3
323.12 K, 23000 kPa, x2 = 0.05
  mass density: 734.1 ± 0.4 kg/m3
323.12 K, 23000 kPa, x2 = 0.7482
  mass density: 699.4 ± 0.4 kg/m3
323.12 K, 24000 kPa, x2 = 0.05
  mass density: 734.8 ± 0.4 kg/m3
323.12 K, 24000 kPa, x2 = 0.7482
  mass density: 700.1 ± 0.4 kg/m3
323.12 K, 25000 kPa, x2 = 0.05
  mass density: 735.4 ± 0.4 kg/m3
323.12 K, 25000 kPa, x2 = 0.7482
  mass density: 700.9 ± 0.5 kg/m3
323.15 K, 1000 kPa, x2 = 0.2346
  mass density: 708.9 ± 0.3 kg/m3
323.15 K, 2000 kPa, x2 = 0.2346
  mass density: 709.9 ± 0.3 kg/m3
323.15 K, 3000 kPa, x2 = 0.2346
  mass density: 710.8 ± 0.3 kg/m3
323.15 K, 4001 kPa, x2 = 0.2346
  mass density: 711.7 ± 0.3 kg/m3
323.15 K, 5001 kPa, x2 = 0.2346
  mass density: 712.6 ± 0.3 kg/m3
323.15 K, 6001 kPa, x2 = 0.2346
  mass density: 713.5 ± 0.3 kg/m3
323.15 K, 7001 kPa, x2 = 0.2346
  mass density: 714.4 ± 0.3 kg/m3
323.15 K, 8000 kPa, x2 = 0.2346
  mass density: 715.2 ± 0.3 kg/m3
323.15 K, 9000 kPa, x2 = 0.2346
  mass density: 716.1 ± 0.3 kg/m3
323.15 K, 10000 kPa, x2 = 0.2346
  mass density: 716.9 ± 0.3 kg/m3
323.15 K, 11000 kPa, x2 = 0.2346
  mass density: 717.7 ± 0.3 kg/m3
323.15 K, 12000 kPa, x2 = 0.2346
  mass density: 718.5 ± 0.3 kg/m3
323.15 K, 13000 kPa, x2 = 0.2346
  mass density: 719.4 ± 0.3 kg/m3
323.15 K, 14000 kPa, x2 = 0.2346
  mass density: 720.1 ± 0.3 kg/m3
323.15 K, 15000 kPa, x2 = 0.2346
  mass density: 720.9 ± 0.4 kg/m3
323.15 K, 16001 kPa, x2 = 0.2346
  mass density: 721.7 ± 0.4 kg/m3
323.15 K, 17000 kPa, x2 = 0.2346
  mass density: 722.5 ± 0.4 kg/m3
323.15 K, 18000 kPa, x2 = 0.2346
  mass density: 723.2 ± 0.4 kg/m3
323.15 K, 19000 kPa, x2 = 0.2346
  mass density: 724 ± 0.4 kg/m3
323.15 K, 20000 kPa, x2 = 0.2346
  mass density: 724.7 ± 0.4 kg/m3
323.15 K, 21033 kPa, x2 = 0.2346
  mass density: 725.4 ± 0.4 kg/m3
323.15 K, 22034 kPa, x2 = 0.2346
  mass density: 726.1 ± 0.4 kg/m3
323.15 K, 23036 kPa, x2 = 0.2346
  mass density: 726.9 ± 0.4 kg/m3
323.15 K, 24037 kPa, x2 = 0.2346
  mass density: 727.5 ± 0.4 kg/m3
323.15 K, 25039 kPa, x2 = 0.2346
  mass density: 728.2 ± 0.4 kg/m3
333.01 K, 1001 kPa, x2 = 0.9511
  mass density: 654.4 ± 0.3 kg/m3
333.01 K, 2000 kPa, x2 = 0.9511
  mass density: 655.7 ± 0.3 kg/m3
333.01 K, 3000 kPa, x2 = 0.9511
  mass density: 656.9 ± 0.3 kg/m3
333.01 K, 4000 kPa, x2 = 0.9511
  mass density: 658.2 ± 0.3 kg/m3
333.01 K, 5000 kPa, x2 = 0.9511
  mass density: 659.4 ± 0.3 kg/m3
333.01 K, 6000 kPa, x2 = 0.9511
  mass density: 660.5 ± 0.3 kg/m3
333.01 K, 7000 kPa, x2 = 0.9511
  mass density: 661.7 ± 0.3 kg/m3
333.01 K, 8000 kPa, x2 = 0.9511
  mass density: 662.8 ± 0.3 kg/m3
333.01 K, 9000 kPa, x2 = 0.9511
  mass density: 663.9 ± 0.3 kg/m3
333.01 K, 10000 kPa, x2 = 0.9511
  mass density: 665 ± 0.3 kg/m3
333.01 K, 11000 kPa, x2 = 0.9511
  mass density: 666.1 ± 0.4 kg/m3
333.01 K, 12000 kPa, x2 = 0.9511
  mass density: 667.1 ± 0.4 kg/m3
333.01 K, 13000 kPa, x2 = 0.9511
  mass density: 668.2 ± 0.4 kg/m3
333.01 K, 14001 kPa, x2 = 0.9511
  mass density: 669.2 ± 0.4 kg/m3
333.01 K, 15001 kPa, x2 = 0.9511
  mass density: 670.2 ± 0.4 kg/m3
333.01 K, 16000 kPa, x2 = 0.9511
  mass density: 671.2 ± 0.4 kg/m3
333.01 K, 17001 kPa, x2 = 0.9511
  mass density: 672.1 ± 0.4 kg/m3
333.01 K, 18001 kPa, x2 = 0.9511
  mass density: 673.1 ± 0.4 kg/m3
333.01 K, 19000 kPa, x2 = 0.9511
  mass density: 674 ± 0.4 kg/m3
333.01 K, 20000 kPa, x2 = 0.9511
  mass density: 674.9 ± 0.4 kg/m3
333.01 K, 21001 kPa, x2 = 0.9511
  mass density: 675.8 ± 0.4 kg/m3
333.01 K, 22000 kPa, x2 = 0.9511
  mass density: 676.7 ± 0.5 kg/m3
333.01 K, 23001 kPa, x2 = 0.9511
  mass density: 677.6 ± 0.5 kg/m3
333.01 K, 24000 kPa, x2 = 0.9511
  mass density: 678.5 ± 0.5 kg/m3
333.01 K, 25000 kPa, x2 = 0.9511
  mass density: 679.3 ± 0.5 kg/m3
333.04 K, 2001 kPa, x2 = 0.5063
  mass density: 688 ± 0.3 kg/m3
333.04 K, 3000 kPa, x2 = 0.5063
  mass density: 689 ± 0.3 kg/m3
333.04 K, 4000 kPa, x2 = 0.5063
  mass density: 690.1 ± 0.3 kg/m3
333.04 K, 5000 kPa, x2 = 0.5063
  mass density: 691.1 ± 0.3 kg/m3
333.04 K, 6000 kPa, x2 = 0.5063
  mass density: 692.1 ± 0.3 kg/m3
333.04 K, 7000 kPa, x2 = 0.5063
  mass density: 693.1 ± 0.3 kg/m3
